{"source": "patent US20030096237A1", "about": "“Determination of the ability of patients to respond to a tumor treatment” (priority 2000, published 2003)", "tested_on": "CNCM I-2546", "experiment": "oligonucleotide array analysis of IFN-α modulated gene expression", "type": "cell-based, human", "description": "All these cell lines were cultured in RPMI medium supplemented with 10% FCS, glutamine (2 mM), sodium pyruvate (1 mM), non-essential amino acids and HEPES buffer (10 mM) (all from GIBCO Life Sciences, Paisley, UK). When confluent, the cells were passaged by trypsinization.\nCultured melanoma cells were harvested by scraping and total cellular RNA was extracted. 10 μg from each sample were used directly as templates for cDNA synthesis using a commercial kit (Roche Molecular Biochemicals, Rotkreuz, Switzerland). The T7 promoter sequence incorporated into the cDNA synthesis primer allowed template amplification and biotin labeling by in vitro transcription using a commercial kit (Affymetrix, Santa Clara, Calif.). After alkaline heat fragmentation […] was hybridised to the array (Affymetrix, Santa Clara, Calif.) and all subsequent steps were performed following standard procedures as supplied with the arrays. Raw data were collected with a confocal laser scanner (Hewlett Packard, Palo Alto, Calif.) using GeneChip software v3.1 (Affymetrix, Santa Clara, Calif.).\nRaw data were normalized based on the total chip signal obtained upon hybridisation of ME15 cell line cDNA. This array was selected because: i) the 5′/3′ intensity ratio of control genes was smaller than 3; ii)>25% of the genes are called “present” by Genechip; iii) the image appearance is homogeneous with low background and no sign of mechanical chip damage.\nThe normalized average difference (nAD) between the signals of the perfect and of the mismatch probesets for each gene was used as the expression level of a given gene. At least one nAD value in a pairwise comparison of data has to exceed 50 to be included. Based on nAD, change factors related to IFN-α exposure were also calculated. Negative nAD values were set to 20 in order to avoid the calculation of artificially high modifications. In order to exclude artefacts, only genes with robust change factors, greater than 2-fold, were included in the analysis. […] Genes were clustered according to their mode of regulation.\nTotal cellular RNA was extracted from the sensitive and resistant melanoma cell lines identified above, reverse transcribed and processed for hybridization to an oligonucleotide array (Hu6800FL, PN 900183) containing probe sets derived from 7000 full-length human genes. Expression levels for each gene were calculated as normalized average difference (nAD, see materials and methods).\nPatterns of genes expressed in IFN-α sensitive and resistant melanoma cell lines were investigated upon 48 hour culture in the presence of IFN-α. CNCM I-2546 and CNCM I-2545 were studied in detail.\nIn Table 2 below, CNCM I-2546 and CNCM I-2545 cultured for 48 hours in the absence or in the presence of 100 U/ml IFN-α were used to assay cytokine modulated gene expression as matched with data obtained in fibrosarcoma cells. This analysis yielded six clusters of genes. […] Data are presented as average difference of signal intensity between match and mismatch probesets.\nIn Table 3 below, CNCM I-2546 and CNCM I-2545 cell lines cultured for 48 hours in the absence or in the presence of 100 U/ml IFN-α were used to identify novel cytokine induced genes whose expression was not found to be modulated in fibrosarcoma cells. Cluster 1 includes genes inducible in the CNCM I-2546 sensitive but not in the CNCM I-2545 resistant cell line. Cluster 2 comprises genes inducible in both lines. Data are presented as average difference of signal intensity between match and mismatch probesets.", "key": {"[1]": {"settings": "CNCM I-2546, IFN-α 100 U/ml 48 hours"}}, "data": [{"substance": "IFN-α", "values": [{"measurement": "change factor (CF) D28137 bst-2", "setting": "[1]", "result": 9.89}, {"measurement": "change factor (CF) D32050 alanyl-trna synthetase", "setting": "[1]", "result": 19.33}, {"measurement": "change factor (CF) D49824 hla-b null allele", "setting": "[1]", "result": 5.42}, {"measurement": "change factor (CF) D50914 EST", "setting": "[1]", "result": 2.26}, {"measurement": "change factor (CF) D78132 rheb gene, ras-related gtp binding protein gene", "setting": "[1]", "result": 1.58}, {"measurement": "change factor (CF) HG658 major histocompatibility complex, class 1 c", "setting": "[1]", "result": 9.85}, {"measurement": "change factor (CF) HG1612 macmarcks", "setting": "[1]", "result": 2.59}, {"measurement": "change factor (CF) HG2917 major histocompatibility complex, class i, e", "setting": "[1]", "result": 4.53}, {"measurement": "change factor (CF) J00105 beta-2 microglobulin gene", "setting": "[1]", "result": 4.86}, {"measurement": "change factor (CF) J00212 leukocyte interferon (ifn-alpha)", "setting": "[1]", "result": "−1.82"}, {"measurement": "change factor (CF) J03909 gamma-interferon-inducible protein (ip-30)", "setting": "[1]", "result": 1.85}, {"measurement": "change factor (CF) J04164 interferon-inducible protein 27-sep", "setting": "[1]", "result": 102.3}, {"measurement": "change factor (CF) J04182 lysosomal membrane glycoprotein-1 (lamp1)", "setting": "[1]", "result": 1.69}, {"measurement": "change factor (CF) J04444 cytochrome c-1 gene", "setting": "[1]", "result": 3.16}, {"measurement": "change factor (CF) K01900 lymphocyte interferon alpha type 201", "setting": "[1]", "result": 0.55}, {"measurement": "change factor (CF) K03515 neuroleukin", "setting": "[1]", "result": 3.37}, {"measurement": "change factor (CF) L07633 interferon-gamma", "setting": "[1]", "result": 1.52}, {"measurement": "change factor (CF) L13210 mac-2 binding protein", "setting": "[1]", "result": 3.54}, {"measurement": "change factor (CF) L35249 vacuolar h + -atpase mr 56,000 subunit (ho57)", "setting": "[1]", "result": 1.47}, {"measurement": "change factor (CF) L37043 casein kinase i epsilon", "setting": "[1]", "result": 21.05}, {"measurement": "change factor (CF) L40387 thyroid receptor interactor (trip14)", "setting": "[1]", "result": 3.25}, {"measurement": "change factor (CF) L42243 ifnar2 gene (interferon receptor)", "setting": "[1]", "result": "−1.3"}, {"measurement": "change factor (CF) M13755 interferon-induced 17-kda/15-kda protein", "setting": "[1]", "result": 34.8}, {"measurement": "change factor (CF) M19650 2′,3′-cyclic nucleotide 3prime-phosphodiesterase", "setting": "[1]", "result": 3.89}, {"measurement": "change factor (CF) M30818 interferon-induced cellular resistance mediator protein", "setting": "[1]", "result": "−3.88"}, {"measurement": "change factor (CF) M31013 nonmuscle myosin heavy chain (nmhc)", "setting": "[1]", "result": 2.34}, {"measurement": "change factor (CF) M34338 spermidine synthase", "setting": "[1]", "result": 2.29}, {"measurement": "change factor (CF) M60784 ul snrnp-specific protein", "setting": "[1]", "result": 8}, {"measurement": "change factor (CF) M65028 heterogeneous nuclear ribonucleoprotein a/b", "setting": "[1]", "result": 1.13}, {"measurement": "change factor (CF) M79462 pml-1", "setting": "[1]", "result": "−1.15"}, {"measurement": "change factor (CF) M92642 alpha-1 type xvi collagen (col16a1)", "setting": "[1]", "result": 0}, {"measurement": "change factor (CF) M94880 mhc class i (hla-a*8001)", "setting": "[1]", "result": 3.61}, {"measurement": "change factor (CF) M97935 transcription factor isgf-3", "setting": "[1]", "result": 13.8}, {"measurement": "change factor (CF) M98343 amplaxin (ems1)", "setting": "[1]", "result": 6.05}, {"measurement": "change factor (CF) S81914 iex-1 = radiation-inducible immediate-early gene", "setting": "[1]", "result": 9.06}, {"measurement": "change factor (CF) U01824 glutamate/aspartate transporter", "setting": "[1]", "result": 3.55}, {"measurement": "change factor (CF) U09579 melanoma differentiation associated (mda-6)", "setting": "[1]", "result": 3.35}, {"measurement": "change factor (CF) U18009 chromosome 17q21 clone lf113", "setting": "[1]", "result": 2.93}, {"measurement": "change factor (CF) U18018 ela enhancer binding protein (ela-f)", "setting": "[1]", "result": 2.18}, {"measurement": "change factor (CF) U22970 16-jun gene, interferon-inducible peptide (6-16)", "setting": "[1]", "result": 53.95}, {"measurement": "change factor (CF) U41515 dss1", "setting": "[1]", "result": "−1.04"}, {"measurement": "change factor (CF) U47025 fetal brain glycogen phosphorylase b", "setting": "[1]", "result": 3.79}, {"measurement": "change factor (CF) U50327 protein kinase c substrate 80k-h gene (prkcsh)", "setting": "[1]", "result": 2.9}, {"measurement": "change factor (CF) U50648 interferon-inducible rna-dependent protein kinase (pkr)", "setting": "[1]", "result": 2.55}, {"measurement": "change factor (CF) U51127 interferon regulatory factor 5", "setting": "[1]", "result": 4.8}, {"measurement": "change factor (CF) U52513 rig-g", "setting": "[1]", "result": 0.96}, {"measurement": "change factor (CF) U53830 interferon regulatory factor 7a", "setting": "[1]", "result": 10.85}, {"measurement": "change factor (CF) U61263 acetolactate synthase homolog", "setting": "[1]", "result": 2.09}, {"measurement": "change factor (CF) U65579 mitochondrial nadh dehydrogenase-ubiquinone", "setting": "[1]", "result": 2.43}, {"measurement": "change factor (CF) U65932 extracellular matrix protein 1 (ecm1)", "setting": "[1]", "result": 2.02}, {"measurement": "change factor (CF) U69126 fuse binding protein 2 (fbp2)", "setting": "[1]", "result": 2.92}, {"measurement": "change factor (CF) U70063 human acid ceramidase", "setting": "[1]", "result": 1.57}, {"measurement": "change factor (CF) U72206 guanine nucleotide regulatory factor (lfp40)", "setting": "[1]", "result": 3.06}, {"measurement": "change factor (CF) U72882 interferon-induced leucine zipper protein (ifp35)", "setting": "[1]", "result": 24.1}, {"measurement": "change factor (CF) U78525 human eukaryotic translation initiation factor (eif3)", "setting": "[1]", "result": 1.14}, {"measurement": "change factor (CF) U91316 acyl-coa thioester hydrolase", "setting": "[1]", "result": 4.01}, {"measurement": "change factor (CF) X04412 plasma gelsolin", "setting": "[1]", "result": 2.48}, {"measurement": "change factor (CF) X07730 prostate specific antigen", "setting": "[1]", "result": 5.6}, {"measurement": "change factor (CF) X15949 interferon regulatory factor-2 (irf-2)", "setting": "[1]", "result": "−2.35"}, {"measurement": "change factor (CF) X57351 1-8d gene from interferon-inducible gene family", "setting": "[1]", "result": 113.8}, {"measurement": "change factor (CF) X57522 ring4 cdna", "setting": "[1]", "result": 3.85}, {"measurement": "change factor (CF) X67325 p27", "setting": "[1]", "result": 19.5}, {"measurement": "change factor (CF) X70848 protein phosphatase 1, catalytic subunit", "setting": "[1]", "result": 2.03}, {"measurement": "change factor (CF) X76538 mpv17", "setting": "[1]", "result": 3.06}, {"measurement": "change factor (CF) X90846 mixed lineage kinase 2", "setting": "[1]", "result": "−1.46"}, {"measurement": "change factor (CF) X95325 dna binding protein a variant", "setting": "[1]", "result": 5.47}, {"measurement": "change factor (CF) X96401 rox protein", "setting": "[1]", "result": 3.21}, {"measurement": "change factor (CF) Y00264 amyloid a4 precursor", "setting": "[1]", "result": 2.42}, {"measurement": "change factor (CF) Z26491 gene catechol o-methyltransferase", "setting": "[1]", "result": 3.62}, {"measurement": "change factor (CF) Z47055 farnesyl pyrophosphate synthetase like", "setting": "[1]", "result": 1.01}, {"measurement": "change factor (CF) Z56281 interferon regulatory factor 3", "setting": "[1]", "result": 5.8}, {"measurement": "nAD D28137 bst-2", "setting": "Table 3, CNCM I-2546 (+) IFN-α 100 U/ml 48 hours, (−) 28", "result": 305}, {"measurement": "change factor (CF) D28137 bst-2", "setting": "Table 3, CNCM I-2546, IFN-α 100 U/ml 48 hours", "result": 9.89}]}]}
